Experiments:
[1] = test system: Nuclear-GFP BacMam 2.0 Virus (baculovirus); assay: Infectivity of PTM analog-labeled Nuclear-GFP BacMam baculovirus in U2-OS cells; format: cell-based; settings: virus labeled in Sf9 cells with 50 uM analog; U2-OS cells incubated overnight with labeled virus; FIG. 5
Text: Inhibition of insect cell baculovirus infectivity with azido fatty acid analogs: The BacMam system uses a modified insect cell virus (baculovirus) as a vehicle to efficiently deliver and express genes in mammalian cells. A Nuclear-GFP BacMam 2.0 expression system (Invitrogen, C10602) was used as a model to determine if PTM analog labeling of the virus would affect mammalian cell infectivity. Viruses were labeled with various PTM analogs and used to infect mammalian cells. Infectivity was determined by the expression of nuclear-GFP, as viral entry into the cell is required for expression of GFP protein, […]
Characterization of BacMam virus production: To verify, quantitate, and normalize the amount of enriched viruses obtained from insect cell supernatants, samples of each virus were lysed in SDS sample preparation buffer (SPB), sonicated with a probe tip sonicator, and heated at 90C to completely dissolve the viral proteins. Viral protein concentrations of the lysates were then determined. […]
Mammalian cell infection protocol: To determine if the PTM analog-labeled viruses retain the ability to infect mammalian cells, 50,000 U2-OS cells (human osteosarcoma cell line) were plated onto a 6 well-chamber glass bottom plate. […] The following day cells were imaged on AMG EVOS fluorescence microscope at 10× or 20× magnification using both white light and GFP filters (FIG. 5). […]

HIV = assay: Infectivity of azide-labeled HIV, luciferase reporter assay on TZM/BI reporter cell line; format: cell-based; settings: HIVNL4-3 labeled in CEMx174 cells; virus incubated 12 hours on TZM/BI; single cycle replication system; two luciferase reagents; FIGS. 3 and 4
Method: CEMx174 cells were transfected with HIVNL4-3 in a T-150 flask and the virus production was monitored by reverse transcriptase activity until peak virus production occurred (usually 7 to 9 days post transfection). Prior to transfection, the CEMx174 cells were spiked with the following azide-modified biomolecules: 15-azidopentadecanoic acid (50-100 μM), 12-azidododecanoic acid (50-100 μM), tetraacetylated N-azidoacetylgalactosamine (20-40 μM), and tetraacetylated N-azidoacetyl-D-mannosamine (20-40 μM).
Labeled virus was also obtained from the transfected cells. More specifically, virus-containing supernatants were collected and virus was purified through 20% sucrose as previously described (Graham, D. R. et al., Proteomics 2008, 8:4919-30). The purified virus was then mixed with the CLICK-IT® detection reagent, tetramethylrhodamine (TAMRA) alkyne and the CLICK-IT® Protein Reaction Buffer Kit (Invitrogen, Carlsbad, Calif.). Virus samples were run on a one-dimensional gel to reveal azide-labeled viral proteins (FIG. 2). […]
To examine the effect of the azide-modified biomolecules on the innate biology of the virus, the azide-labeled virus from the transfected cells was isolated and tested in cell infection studies. […] Viral infectivity was determined by measuring cellular luciferase activities with two different luciferase reagents.

Structure (SMILES)	nuclear-GFP expression (viral entry) [1]	impact on the infectivity of the virus (cellular luciferase activity) (HIV)
[N-]=[N+]=NCCCCCCCCCCCC(=O)O [12-azidododecanoic acid]	no nuclear-GFP expression	profound impact on the infectivity of the virus
[N-]=[N+]=NCCCCCCCCCCCCCCC(=O)O [15-azidopentadecanoic acid]	no nuclear-GFP expression	–

Source: US20130209550A1, “Anti-Viral Azide Containing Compounds” (LIFE TECHNOLOGIES CORPORATION, priority 2010, published 2013)
